Experiment [1] concerns Klebsiella pneumoniae K66-45. Description: MIC determination, fixed ratio of sBLI to antibiotic (Examples 2-4). In kind it is cell-based. The conditions noted are these: Example 2; with MEM and AVI (fixed ratio); NDM-1; caMHB, 29.4 μM Zn2+. As to the method:
(§1) Antimicrobial susceptibility testing (AST) by broth microdilution (MIC determination) was performed according to The European Committee on Antimicrobial Susceptibility Testing (EUCAST) guidelines (see Reading guide for broth microdilution Version 5.0, 2024: https://www.eucast.org).
(§2) Sterile clear round bottom polystyrene (non-treated) 96-well microplates (Corning 3788) were used for making serial two-fold dilutions of the antibiotic and the sBLI in cation-adjusted Mueller Hinton II broth (caMHB; Thermo Scientific, T3462, containing 29.4 μM Zn^2+), across the columns of the microtiter plate (256-0.06 μg/mL; columns 1-12). The checkerboard plates were all made by keeping the sBLI at a fixed ratio relative to antibiotic (absolute concentrations of each, in μg/mL) to all wells containing sample in each plate. Additionally, a set of samples was included in each test plate, where the zinc chelator was added, at various fixed concentrations, of 16 μg/mL, 8 μg/mL and/or 4 μg/mL (as specified in each Example). All sample wells contained growth medium (caMHB), and inoculated bacteria at a final inoculum between 3-7×10^5 CFU/mL. […]

Experiment [2] has as its system Klebsiella pneumoniae ST147. The experiment can be described thus: MIC determination, fixed ratio of sBLI to antibiotic (Examples 5-7). In kind it is cell-based. As to conditions: Example 7; with MEM and AVI (fixed ratio); NDM-1 and KPC-2; caMHB, 29.4 μM Zn2+. As to the method:
as §1, §2

Several values for one entry are separate records, joined by “and”; a condition that tells them apart may be missing. Identical values can stand only once.

For the molecule `CN(C[C@H](O)[C@@H](O)[C@H](O)[C@H](O)CO)C(=O)c1ccc(CN(Cc2ccccn2)Cc2ccccn2)nc1` [zinc chelator], the “Synergy with the zinc chelator observed at concentration” value is 16 µg/mL and 8 µg/mL in experiment [1]; 16 µg/mL and 8 µg/mL in experiment [2].
